Data taken from paper PMC7717699, “Tuning the activity of iminosugars: novel N-alkylated deoxynojirimycin derivatives as strong BuChE inhibitors” (Journal of Enzyme Inhibition and Medicinal Chemistry, 2020).
Where two headings read alike, the source gives them in different places.

What was measured:
[1] = biological target: β-glucosidase (almonds); assay: β-Glucosidase inhibition (p-nitrophenyl glycoside substrate); format: biochemical; conditions: for IC50: almond enzyme, pH 6.8, 25 °C; for Mode of inhibition β-Glucosidase: Cornish–Bowden method; for Ki: binding to free enzyme, read-out: Kia β-Glucosidase
Protocol: (§1) For both families of enzymes used herein (glycosidases and cholinesterases), stock solutions of the inhibitors were prepared in DMSO; DMSO content was kept at 5% (V/V) for glycosidases and 1.25% (V/V) for cholinesterases. Enzymes were properly dissolved in water in a concentration in which the rate of the reaction when using [S] = 4 × KM is in the range 0.12–0.15 Abs/min. In both kinds of enzymes, an initial screening at 100 µM inhibitor concentration was performed, using the following substrate concentrations: [S] = 0.25 mM for α-glucosidase (Saccharomyces cerevisiae), 4.0 mM for β-glucosidase (almonds), 0.60 mM for α-galactosidase (green coffee beans), 0.51 mM for β-galactosidase (Escherichia coli), 1.5 mM for β-galactosidase (Aspergillus Oryzae), 0.12 mM for AChE (Electrophorus electricus), 0.11 mM for BuChE (equine serum). […] Each assay was run in duplicate.
(§2) Glycosidase assays were accomplished using the methodology reported by Bols and co-workers[30]. Each set of experiments is prepared in PS cuvettes using 0.1 M phosphate buffer (pH 6.8) and the corresponding o- or p-nitrophenyl glycopyranosides as substrates. Reactions were monitored at 25 °C by following the formation of the corresponding nitrophenolates at 400 nm (glucosidases and α-galactosidase) or 420 nm (β-galactosidases) over a time of 125 s.
(§3) For strong inhibitors, the mode of inhibition was determined using the Cornish–Bowden method, which involves the use of two different plots: 1/v vs. [I] (Dixon plot) and [S]/v vs. [I]. For the calculation of kinetic parameters (KM, Vmax) a nonlinear regression analysis (least squares fit, GraphPad Prism 8.01) was used. Data are expressed as the mean ± SD.
(§4) Assessment of the inhibitory capacity against glycosidases was accomplished using the methodology reported by Bols and co-workers[30]. p-Nitrophenyl glycosides (o- for β-galactosidases) were used as model substrates, and the release of the corresponding p-nitrophenolates at pH 6.8 was monitored spectrophotometrically (λmax = 400 or 420 nm for p- or o-nitrophenolates, respectively).

[2] = biological target: T1, β-galactosidase (Escherichia coli) (Escherichia coli, UniProt P00722); assay: β-Galactosidase (E. coli) inhibition; format: biochemical
T1 construct: purchased
Protocol: as §1, §2, §4

[3] = biological target: T2, BuChE (equine serum) (Equus caballus, UniProt P81908); assay: BuChE inhibition, Ellman's assay; format: biochemical; conditions: for Mode of inhibition BuChE: Cornish–Bowden method
T2 construct: 0.11 mM for BuChE (equine serum); from tissue; host or cells: equine serum
Protocol: as §1
(§5) For cholinesterases, minor modifications on Ellman’s assay[31] were performed. The activity was measured in PS cuvettes containing […] (pH 8.0), 0.88 mM DTNB, and substrate (acetyl- and butyryl-thiocholine iodides for AChE and BuChE, respectively), The formation of the chromophore was monitored at 405 nm over a time of 125 s.
as §3
(§6) Derivatives 11 and 12 were tested also against AChE (Electrophorus electricus) and BuChE (equine serum), as recognised models for human cholinesterases due to their close structural resemblance. For that purpose, Ellman’s colorimetric assay was used; this is an indirect test in which acetyl and butyryl thiocholine iodides are used as model substrates, which upon interaction with the enzyme release thiocholine, which in turn reacts with the chromogen reagent 5,5′-dithiobis(2-nitrobenzoic acid (DTNB) to give 2-nitro-5-mercaptobenzoate (at pH 8.0). The monitoring of the latter at 405 nm furnishes the kinetic parameters.

[4] = biological target: T3, β-galactosidase (Aspergillus Oryzae) (Aspergillus oryzae, UniProt Q2UCU3); assay: β-Galactosidase (A. oryzae) inhibition; format: biochemical
T3 construct: purchased
T3 sequence (Q2UCU3 19-1005): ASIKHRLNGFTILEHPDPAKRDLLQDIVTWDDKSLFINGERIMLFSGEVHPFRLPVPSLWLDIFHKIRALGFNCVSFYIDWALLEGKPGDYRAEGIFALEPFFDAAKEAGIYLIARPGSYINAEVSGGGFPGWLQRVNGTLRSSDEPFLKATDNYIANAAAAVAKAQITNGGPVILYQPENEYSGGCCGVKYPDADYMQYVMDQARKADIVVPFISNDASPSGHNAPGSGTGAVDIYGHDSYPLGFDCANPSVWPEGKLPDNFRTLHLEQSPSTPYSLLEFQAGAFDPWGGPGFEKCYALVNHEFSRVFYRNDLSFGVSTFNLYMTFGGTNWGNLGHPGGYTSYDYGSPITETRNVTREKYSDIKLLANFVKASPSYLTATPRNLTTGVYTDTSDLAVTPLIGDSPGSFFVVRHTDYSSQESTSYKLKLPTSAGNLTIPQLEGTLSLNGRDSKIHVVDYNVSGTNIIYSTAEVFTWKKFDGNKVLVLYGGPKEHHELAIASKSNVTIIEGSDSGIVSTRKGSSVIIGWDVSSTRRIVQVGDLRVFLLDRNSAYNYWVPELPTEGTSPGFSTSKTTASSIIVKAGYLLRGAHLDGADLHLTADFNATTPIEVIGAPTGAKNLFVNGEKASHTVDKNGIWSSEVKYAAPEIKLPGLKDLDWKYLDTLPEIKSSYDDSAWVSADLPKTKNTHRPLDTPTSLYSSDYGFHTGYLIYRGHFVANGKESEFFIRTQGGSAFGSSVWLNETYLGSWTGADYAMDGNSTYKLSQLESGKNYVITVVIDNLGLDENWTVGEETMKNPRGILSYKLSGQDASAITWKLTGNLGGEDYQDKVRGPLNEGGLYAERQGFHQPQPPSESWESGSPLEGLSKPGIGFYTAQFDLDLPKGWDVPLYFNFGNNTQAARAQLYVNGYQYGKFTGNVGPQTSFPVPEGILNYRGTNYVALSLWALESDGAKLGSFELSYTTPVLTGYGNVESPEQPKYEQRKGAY
Protocol: as §1, §2, §4

[5] = biological target: AChE (Electrophorus electricus) (Electrophorus electricus, UniProt O42275); assay: AChE inhibition, Ellman's assay; format: biochemical
Protocol: as §1, §5, §3, §6

[6] = biological target: T4, α-glucosidase (Saccharomyces cerevisiae) (Saccharomyces cerevisiae, UniProt P53341); assay: α-Glucosidase inhibition (p-nitrophenyl glycoside substrate); format: biochemical
T4 construct: purchased
Protocol: as §1, §2
(Dixon plot) and [S]/v vs. [I]. For the calculation of kinetic parameters (KM, Vmax) a nonlinear regression analysis (least squares fit, GraphPad Prism 8.01) was used. Data are expressed as the mean ± SD.
as §4

[7] = biological target: T5, α-galactosidase (green coffee beans) (Coffea arabica, UniProt Q42656); assay: α-Galactosidase inhibition; format: biochemical
T5 construct: purchased; host or cells: green coffee beans
Protocol: as §1, with “Enzymes” for “For both families of enzymes used herein (glycosidases and cholinesterases), stock solutions of the inhibitors were prepared in DMSO; DMSO content was kept at 5% (V/V) for glycosidases and 1.25% (V/V) for cholinesterases. Enzymes”
Glycosidase assays were accomplished using the methodology reported by Bols and co-workers[30]. Each set of experiments is prepared in PS cuvettes using 0.1 M phosphate buffer (pH 6.8) and the corresponding o- or p-nitrophenyl glycopyranosides as substrates.
as §4

[8] = test system: BJ-hTERT human fibroblasts; assay: Antiproliferative SRB assay, BJ-hTERT; format: cell-based; conditions: Fibroblast, 48 h, non-tumour fibroblasts
[9] = equine serum, pH 8.0, read-out: IC50 BuChE
[10] = Electrophorus electricus, pH 8.0, read-out: IC50 AChE

T5 sequence (Q42656 16-378): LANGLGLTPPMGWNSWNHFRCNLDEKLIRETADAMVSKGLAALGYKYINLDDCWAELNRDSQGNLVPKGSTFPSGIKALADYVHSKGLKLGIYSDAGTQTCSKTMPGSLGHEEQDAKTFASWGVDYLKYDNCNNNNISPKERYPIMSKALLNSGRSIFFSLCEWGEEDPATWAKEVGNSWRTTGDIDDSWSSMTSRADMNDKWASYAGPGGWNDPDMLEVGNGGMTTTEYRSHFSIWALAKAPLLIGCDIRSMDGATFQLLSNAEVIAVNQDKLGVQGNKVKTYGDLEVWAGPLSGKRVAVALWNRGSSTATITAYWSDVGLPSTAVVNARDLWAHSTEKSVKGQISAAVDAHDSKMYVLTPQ
T1 sequence (P00722 2-1024 limits assumed): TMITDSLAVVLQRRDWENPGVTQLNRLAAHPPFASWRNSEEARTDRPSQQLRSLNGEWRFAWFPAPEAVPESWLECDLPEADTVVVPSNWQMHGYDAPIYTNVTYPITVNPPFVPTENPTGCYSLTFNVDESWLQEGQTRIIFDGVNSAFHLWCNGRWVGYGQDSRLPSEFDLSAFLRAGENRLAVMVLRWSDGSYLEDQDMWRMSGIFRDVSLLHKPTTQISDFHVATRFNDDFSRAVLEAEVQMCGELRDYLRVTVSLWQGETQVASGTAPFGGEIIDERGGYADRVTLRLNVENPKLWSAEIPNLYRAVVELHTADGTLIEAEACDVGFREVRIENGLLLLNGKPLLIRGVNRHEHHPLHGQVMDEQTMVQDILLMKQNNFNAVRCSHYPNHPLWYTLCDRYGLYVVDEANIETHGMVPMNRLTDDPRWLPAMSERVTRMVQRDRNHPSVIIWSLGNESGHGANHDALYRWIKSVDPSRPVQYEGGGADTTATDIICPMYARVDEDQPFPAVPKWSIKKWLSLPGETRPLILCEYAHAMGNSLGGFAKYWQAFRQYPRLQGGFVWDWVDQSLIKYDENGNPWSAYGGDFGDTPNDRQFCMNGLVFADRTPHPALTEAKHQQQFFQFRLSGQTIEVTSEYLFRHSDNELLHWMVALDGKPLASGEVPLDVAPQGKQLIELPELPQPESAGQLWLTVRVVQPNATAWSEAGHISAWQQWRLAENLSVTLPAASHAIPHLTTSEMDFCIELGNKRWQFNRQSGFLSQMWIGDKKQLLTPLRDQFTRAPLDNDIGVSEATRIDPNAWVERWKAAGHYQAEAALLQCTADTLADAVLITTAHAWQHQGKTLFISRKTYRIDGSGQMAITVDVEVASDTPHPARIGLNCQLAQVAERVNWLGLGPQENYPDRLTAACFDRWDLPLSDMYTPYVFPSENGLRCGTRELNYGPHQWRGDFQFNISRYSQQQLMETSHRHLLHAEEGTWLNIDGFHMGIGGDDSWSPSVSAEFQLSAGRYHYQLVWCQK
T2 sequence (P81908 whole entry): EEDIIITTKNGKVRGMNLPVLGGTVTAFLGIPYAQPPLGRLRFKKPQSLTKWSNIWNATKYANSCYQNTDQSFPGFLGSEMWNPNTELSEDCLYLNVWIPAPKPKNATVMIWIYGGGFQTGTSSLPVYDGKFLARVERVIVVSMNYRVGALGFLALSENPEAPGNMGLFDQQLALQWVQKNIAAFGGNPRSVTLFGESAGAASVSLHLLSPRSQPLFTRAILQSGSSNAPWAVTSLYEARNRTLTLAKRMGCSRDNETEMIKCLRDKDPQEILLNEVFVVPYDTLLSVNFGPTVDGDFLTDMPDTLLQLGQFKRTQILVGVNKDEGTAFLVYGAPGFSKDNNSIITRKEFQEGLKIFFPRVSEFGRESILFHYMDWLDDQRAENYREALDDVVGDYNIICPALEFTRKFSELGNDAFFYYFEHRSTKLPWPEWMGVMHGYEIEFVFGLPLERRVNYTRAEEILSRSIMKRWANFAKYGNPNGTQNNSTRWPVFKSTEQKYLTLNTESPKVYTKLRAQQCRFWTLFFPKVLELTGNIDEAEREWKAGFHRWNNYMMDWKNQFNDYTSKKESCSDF
AChE (Electrophorus electricus), sequence (O42275 24-633): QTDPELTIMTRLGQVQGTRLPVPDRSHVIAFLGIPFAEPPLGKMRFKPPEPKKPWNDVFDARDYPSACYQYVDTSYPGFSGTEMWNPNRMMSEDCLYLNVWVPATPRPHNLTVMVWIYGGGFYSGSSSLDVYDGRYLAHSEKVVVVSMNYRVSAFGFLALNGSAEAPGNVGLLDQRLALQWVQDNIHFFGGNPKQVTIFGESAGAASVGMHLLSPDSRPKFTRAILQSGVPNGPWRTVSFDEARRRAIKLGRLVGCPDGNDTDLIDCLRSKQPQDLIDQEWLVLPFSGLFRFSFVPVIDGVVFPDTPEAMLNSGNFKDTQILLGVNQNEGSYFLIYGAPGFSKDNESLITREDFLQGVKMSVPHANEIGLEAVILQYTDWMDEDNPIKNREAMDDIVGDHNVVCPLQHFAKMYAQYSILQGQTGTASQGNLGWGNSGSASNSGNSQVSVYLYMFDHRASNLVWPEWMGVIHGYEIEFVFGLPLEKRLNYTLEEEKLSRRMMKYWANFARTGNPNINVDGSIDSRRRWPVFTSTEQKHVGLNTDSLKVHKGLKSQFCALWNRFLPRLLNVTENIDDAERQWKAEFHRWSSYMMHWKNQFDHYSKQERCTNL
T4 sequence (P53341 whole entry): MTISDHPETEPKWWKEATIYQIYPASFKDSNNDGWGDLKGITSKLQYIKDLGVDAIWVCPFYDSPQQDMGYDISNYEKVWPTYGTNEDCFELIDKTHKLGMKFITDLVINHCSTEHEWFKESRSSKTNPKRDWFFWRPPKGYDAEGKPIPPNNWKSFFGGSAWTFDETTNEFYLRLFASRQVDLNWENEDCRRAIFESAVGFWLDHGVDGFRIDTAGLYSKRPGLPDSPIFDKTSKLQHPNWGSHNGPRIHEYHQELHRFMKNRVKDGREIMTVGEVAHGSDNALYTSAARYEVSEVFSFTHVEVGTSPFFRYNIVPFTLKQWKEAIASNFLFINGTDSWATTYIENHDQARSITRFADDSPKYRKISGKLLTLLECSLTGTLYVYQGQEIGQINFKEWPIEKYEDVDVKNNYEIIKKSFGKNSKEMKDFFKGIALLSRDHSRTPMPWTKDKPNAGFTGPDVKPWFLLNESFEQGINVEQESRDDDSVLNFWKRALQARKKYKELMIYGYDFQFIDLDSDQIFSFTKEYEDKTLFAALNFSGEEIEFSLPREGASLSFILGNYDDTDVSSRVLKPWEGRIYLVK

OC[C@H]1NC[C@H](O)[C@@H](O)[C@@H]1O [Compound 1-DNJ, 1-deoxynojirimycin, reference compound]
IC50 [1]: […] | IC50 ([2]; E. coli enzyme, read-out: IC50 β-Galactosidase (E. coli)): > 100 µM | IC50 [3]: 10 µM | Ki [3]: 16 ± 3 µM | Mode of inhibition BuChE [3]: Non-competitive | IC50 ([4]; Asp. Oryzae enzyme, read-out: IC50 β-Galactosidase (Asp. Oryzae)): > 100 µM | IC50 [5]: > 100 µM

OC[C@@H]1[C@@H](O)[C@H](O)[C@@H](O)CN1CCCCCCOCCc1ccccc1 [Compound 11a]
Mode of inhibition β-Glucosidase [1]: Competitive | IC50 [1]: 4.6 µM | Ki [1]: 6.5 µM | IC50 [6]: 126 µM | Ki [6]: 93 µM | Mode of inhibition α-Glucosidase ([6]; Cornish–Bowden method): Competitive | IC50 [2]: > 100 µM | IC50 [3, 9]: > 100 µM | IC50 [4]: > 100 µM | IC50 [5, 10]: > 100 µM | IC50 [7]: > 100 µM

OC[C@@H]1[C@@H](O)[C@H](O)[C@@H](O)CN1CCCCCCOCCc1ccc(O)cc1 [Compound 11b]
Mode of inhibition β-Glucosidase [1]: Competitive | IC50 [1]: 12 µM | Ki [1]: 17 µM | IC50 [6]: > 100 µM | IC50 [2]: > 100 µM | IC50 [3, 9]: > 100 µM | IC50 [4]: > 100 µM | IC50 [5, 10]: > 100 µM | IC50 [7]: > 100 µM

COc1ccc(CCOCCCCCCN2C[C@H](O)[C@@H](O)[C@H](O)[C@H]2CO)cc1 [Compound 11c]
Mode of inhibition β-Glucosidase [1]: Competitive | IC50 [1]: 6 µM | Ki [1]: 4.5 µM | IC50 [6]: > 100 µM | IC50 [2]: > 100 µM | IC50 [3, 9]: > 100 µM | IC50 [4]: > 100 µM | IC50 [5, 10]: > 100 µM | IC50 [7]: > 100 µM

OC[C@@H]1[C@@H](O)[C@H](O)[C@@H](O)CN1CCCCCCOCCc1ccc(O)c(O)c1 [Compound 11d]
Mode of inhibition β-Glucosidase [1]: Competitive | IC50 [1]: 15 µM | Ki [1]: 11 µM | IC50 [6]: > 100 µM | IC50 [2]: > 100 µM | GI50 [8]: 39 ± 5 µM | IC50 [3, 9]: 76 µM | IC50 [4]: > 100 µM | IC50 [5, 10]: > 100 µM | IC50 [7]: > 100 µM

COc1ccc(CCOCCCCCCN2C[C@H](O)[C@@H](O)[C@H](O)[C@H]2CO)cc1OC [Compound 11e]
Mode of inhibition β-Glucosidase [1]: Competitive | IC50 [1]: 14 µM | Ki [1]: 15 µM | IC50 [6]: > 100 µM | IC50 [2]: > 100 µM | Mode of inhibition BuChE [3]: mixed inhibition | Ki ([3]; binding to enzyme-substrate complex, read-out: Kib BuChE): 4.5 µM | Ki ([3]; binding to free enzyme, read-out: Kia BuChE): 1.4 µM | IC50 [3, 9]: 1.9 µM | IC50 [4]: > 100 µM | Mode of inhibition AChE ([5]; Cornish–Bowden method): mixed inhibitor | IC50 [5, 10]: 5.8 µM | Ki ([5]; binding to enzyme-substrate complex, read-out: Kib AChE): 5.2 µM | Ki ([5]; binding to free enzyme, read-out: Kia AChE): 9.3 µM | IC50 [7]: > 100 µM
